Assay [1] is filed under the species Homo sapiens. The experiment in a line: Selectivity for human SERT over human NET.
Assay [2] is filed under the species Homo sapiens. The experiment in a line: Selectivity for human SERT over human DAT.

Here are results for 6 compounds from ChEMBL document CHEMBL1140853, “The stereochemistry of N-methyl and aryl substituents determine the biological activities of 3-aryl-8-methyl-8-azabicyclo[3.2.1]oct-2,3-enes” (Bioorg Med Chem, 2009).

The structures appear in SMILES notation.

`CN1C2C=C(c3ccc4c(c3)Cc3ccccc3-4)CC1CC2` (configuration not stated): the Ratio was 232 in the assay filed under Homo sapiens [1] and 52.2 in the assay filed under Homo sapiens [2].
The like results for `CN1C2C=C(c3cccc(-c4ccccc4)c3)CC1CC2` (configuration not stated) were, in that order, 34 and 10.8.
With `CN1C2C=C(c3ccccc3-c3ccccc3)CC1CC2` (configuration not stated), the values for the Ratio in the assay filed under Homo sapiens [1] and in the assay filed under Homo sapiens [2] were 3.8 and 5.4, respectively.
The like results for `CN1C2C=C(c3cccc4ccccc34)CC1CC2` (configuration not stated) were, in that order, 94.4 and 11.6.
The like results for `CN1C2C=C(c3c[nH]c4ccccc34)CC1CC2` (configuration not stated) were, in that order, 54 and 8.3.
The like results for `CN1C2C=C(C3c4ccccc4-c4ccccc43)CC1CC2` (configuration not stated) were, in that order, 120 and 13.6.
